Laboratory results taken from patent US20200200735A9, “SYSTEM AND METHOD FOR DETECTING THERAPEUTIC AGENTS TO MONITOR ADHERENCE TO A TREATMENT REGIMEN” (UrSure, Inc., priority 2016, published 2020).
Where two headings read alike, the source gives them in different places.

Key:
HIV = conditions: Anderson 2012; cited from earlier work
[1] = Cohort 2: single dose of Truvada in healthy subjects, TFV clearance in plasma and urine over 7 days (LC-MS/MS); type: in vivo, human
Method: (§1) 3 cohort studies were conducted to assess a system for detection of the active metabolite tenofovir (TFV) of the prodrug nucleotide reverse transcriptase inhibitor (NRTI) tenofovir disoproxil fumarate (TDF). Cohort 1: a cross sectional study of 10 HIV positive subjects with undetectable HIV viral loads on a TDF-based regimen; Cohort 2: a single dose study of Truvada in 10 healthy subjects to evaluate TFV clearance in plasma and urine over 7 days; Cohort 3: a 16 week study of 10 HIV negative subjects receiving daily PrEP to evaluate concordance between plasma and urine over time.
A semi-quantitative liquid chromatography-tandem mass spectrometry (LC-MS/MS) urine assay was developed for detection of TFV with high sensitivity/specificity. […] To evaluate the qualitative relationship of urine TFV levels to plasma levels, the levels of TFV in the urine and plasma from Cohort 1 was evaluated. […] In addition, the TFV concentration was 3-4 logs higher in urine than plasma (FIG. 2). In cohort 2, TFV was detected for >7 days in urine and 2-4 days in plasma after a single dose of Truvada™ (FIG. 3). […] The urine assay was 2 logs more sensitive than serum over 7 days (FIG. 3).
A semi-quantitative liquid chromatography-tandem mass spectrometry (LC-MS/MS) urine assay with high sensitivity and specificity for TFV allowed us to determine TFV concentrations in log categories between <[…] to >10,000 ng/mL. Following protein precipitation (0.1 mL human plasma or urine or diluted urine sample) using 100% acetonitrile with 0.1% formic acid, containing deuterated internal standard (2H6-tenofovir, 50 ng/mL), the analytes were separated using gradient mobile phase on a reverse phase C18 column and analyzed by MS/MS (AB Sciex API4000). The multiple reaction monitoring of m/z 288.3 to 176.3 for tenofovir and m/z 294.3 to 182.2 for 2H6-tenofovir was used for analysis. […] Flow rate was 0.7 ml/min and total chromatographic run-time was 3.0 minutes/sample.
Standards (10, 100, 1000 and 10,000 ng/mL in human plasma), blanks (double blank and internal standard blank) and unknown plasma and urine samples were thawed to room temperature. One hundred μL of all standards and blanks were put into appropriate wells on a 96 well plate. Diluted unknown urine samples (95 μL blank plasma +5 μL of unknown urine samples, 20-fold dilution) or undiluted plasma samples were mixed with 400 μL of IS solution in a 96 well plate. The plate was vortexed for 30 seconds at high speed and centrifuged for 30 minutes at 4000 rpm. Supernatant was transferred to a fresh 96 well plate and a 10 μL aliquot was injected for LC-MS/MS analysis from autosampler. […] When the concentration of TFV in urine samples exceeded 1,000 ng/mL, samples were diluted 50-fold with blank urine and reanalyzed.

[2] = in vivo; cited from earlier work
HIV-1 = conditions: cited from earlier work
[3] = human, in vivo
Method: as §1
(§2) A semi-quantitative liquid chromatography-tandem mass spectrometry (LC-MS/MS) urine assay was developed for detection of TFV with high sensitivity/specificity. […] To evaluate the qualitative relationship of urine TFV levels to plasma levels, the levels of TFV in the urine and plasma from Cohort 1 was evaluated. […] In addition, the TFV concentration was 3-4 logs higher in urine than plasma (FIG. 2). In cohort 2, TFV was detected for >7 days in urine and 2-4 days in plasma after a single dose of Truvada™ (FIG. 3). […]
(§3) A semi-quantitative liquid chromatography-tandem mass spectrometry (LC-MS/MS) urine assay with high sensitivity and specificity for TFV allowed us to determine TFV concentrations in log categories between <10 ng/L to >10,000 ng/mL. […]

[4] = Cohort 3: 16 week study of HIV negative subjects on daily PrEP, TFV in plasma and urine (LC-MS/MS); type: in vivo, human; conditions: Cohort 3, daily PrEP
Method: as §1, §2, §3

[5] = in vivo; cited from earlier work; remark: listed apart in the source

| SMILES | intracellular concentration associated with a 90% reduction in HIV acquisition relative to the placebo arm (HIV) | time TFV detected in plasma ([1]; after a single dose of Truvada) [days] | time TFV detected in urine ([1]; after a single dose of Truvada) [days] | urine TFV clearance pattern ([1]; after a single dose of Truvada, over 7 days) | window of medication usage reflected by TFV detection in urine ([1]; after oral TDF/FTC ingestion, preliminary data) | window of exposure reflected by single plasma concentrations [2] [days] | HIV-1 risk reduction corresponding to intracellular tenofovir concentration (HIV-1; 2 doses per week) [%] | HIV-1 risk reduction corresponding to intracellular tenofovir concentration (HIV-1; 4 doses per week) [%] | HIV-1 risk reduction corresponding to intracellular tenofovir concentration (HIV-1; 7 doses per week) [%] | TFV concentration higher in urine than plasma [3] | plasma samples with TFV detected [4] [%] | urine samples with TFV detected [4] [%] | intracellular half-life [5] [h] | plasma half-life [5] [h] |
| --- | --- | --- | --- | --- | --- | --- | --- | --- | --- | --- | --- | --- | --- | --- |
| CC(Cn1cnc2c(N)ncnc21)OCP(=O)(O)OP(=O)(O)OP(=O)(O)O (stereo in doubt) [tenofovir-diphosphate] | 16 fmol per million peripheral blood mononuclear cells (PBMCs) | – | – | – | – | – | – | – | – | – | – | – | – | – |
| C[C@H](Cn1cnc2c(N)ncnc21)OCP(=O)(O)O [TFV, Tenofovir] | – | 2 to 4 | > 7 | cleared in a log-linear fashion | one to at least seven days | 2 to 3 | 76 | 96 | 99 | 3-4 logs | 74 | 93 | 150 | 17 |
